Assay results: patent US11466044B2 (WAYNE STATE UNIVERSITY, priority 2017, dated 2022)
≈ marks a conversion by molar mass, not a printed value. Like-named read-outs stand apart in the source and are kept apart here.

Key:
E coli wild type = assay: MIC by broth microdilution, wild type E coli; format: cell-based; details: for MIC: Escherichia coli; for MIC E. coli WT: Table 5 (Example 3)
[1] = system: E coli carrying specific resistance determinants; assay: MIC by broth microdilution, E coli carrying specific resistance determinants; format: cell-based; details: for MIC: Escherichia coli
[2] = system: wild type bacterial ribosomes; assay: in-vitro translation assay, bacterial ribosomes; format: biochemical; details: bacterial ribosome, read-out: IC50 Bac
From the text: (§1) The antiribosomal activity of these compounds was investigated with cell-free translation assays using both wild type bacterial ribosomes and hybrid ribosomes carrying eukaryotic decoding A sites enabling the prediction of selectivity.

[3] = system: cytosolic ribosome (human chimeric); format: biochemical; details: cytosolic, read-out: IC50 Cyt
From the text: as §1

[4] = system: mitochondrial ribosome (human chimeric); format: biochemical; details: mitochondrial, read-out: IC50 Mit
From the text: as §1

M. smegmatis SZ380 = assay: MIC by broth microdilution, M. smegmatis; details: for MIC M. smegmatis SZ380 WT: Table 5 (Example 3)
M. abscessus = assay: MIC by broth microdilution, M. abscessus; format: cell-based; details: Table 5 (Example 3)
MRSA = assay: MIC by broth microdilution, MRSA isolates; format: cell-based; details: Table 1 (Example 2)
P aeruginosa = assay: MIC by broth microdilution, P aeruginosa isolates; format: cell-based, Pseudomonas aeruginosa; details: Table 1 (Example 2)
[5] = clinical isolate AG160 WT, Table 2 (Example 4), read-out: MIC AG160 E. coli WT
[6] = engineered strain pH430 WT, Table 2 (Example 4), read-out: MIC pH430 E. coli WT
[7] = read-out: MIC AG037 E. coli APH(3′)-III

Molecule NCC1OC(OC2C(N)CC(N)C(O)C2OC2OC(CNC=O)C(O)C2O)C(N)C(O)C1O (stereo not shown) [Compound 130] has an MIC (E coli wild type; WT, Table 3 (Example 1), read-out: MIC WT) of 4 µg/mL (≈ 8.31 µM), an MIC (E coli wild type; [5]) of 16 µg/mL (≈ 33.2 µM) and an MIC (E coli wild type; [6]) of 4 µg/mL (≈ 8.31 µM). It also gave an MIC [1, 7] of over 128 µg/mL, an MIC ([1]; read-out: MIC AG163 E. coli APH(3′)-I) of over 128 µg/mL and an MIC ([1]; read-out: MIC AG166 E. coli APH(3′)-II) of over 128 µg/mL. It also gave an MIC ([1]; read-out: MIC APH(3)-VI) of over 64 µg/mL, an MIC ([1]; read-out: MIC APH(3′)-I) of over 64 µg/mL and an MIC ([1]; read-out: MIC APH(3′)-II) of over 64 µg/mL. It also gave an MIC ([1]; read-out: MIC APH(3′)-III) of over 64 µg/mL, an MIC ([1]; read-out: MIC pH421 E. coli APH(3′)-I) of over 64 µg/mL and an MIC ([1]; read-out: MIC pH422 E. coli APH(3′)-II) of over 64 µg/mL. The MIC ([1]; read-out: MIC pH423 E. coli APH(3′)-VI) was over 64 µg/mL, the IC50 ([2]; Table 3 (Example 1)) was 0.24 µM and the IC50 ([3]; Table 3 (Example 1)) was 359 µM. It also gave an IC50 ([4]; Table 3 (Example 1)) of 364 µM.

For NC[C@@H]1O[C@H](O[C@@H]2C(O)[C@H](O[C@@H]3C(O)[C@H](N)CC(N)[C@H]3O[C@H]3OC4C(O)CCCO[C@H]4[C@H](O)C3N)O[C@@H]2CO)C(N)C(O)[C@@H]1O (stereo partly shown) [DC-196], the MIC (E coli wild type; read-out: MIC WT, WT, Table 3 (Example 2)) was 4 µg/mL (≈ 6.1 µM), the MIC ([1]; read-out: MIC AAC(6′)) was 4 µg/mL (≈ 6.1 µM) and the MIC ([1]; read-out: MIC ANT(4′)) was 2 µg/mL (≈ 3.05 µM). For the same molecule, the MIC ([1]; read-out: MIC APH(3′)-II) was 16 µg/mL (≈ 24.4 µM), the MIC ([1]; read-out: MIC APH(3′)-VI) was 16 µg/mL (≈ 24.4 µM) and the IC50 ([3]; Table 3 (Example 2)) was 200 µM. It also gave an IC50 ([4]; Table 3 (Example 2)) of 0.14 µM.

CC(=O)O.NCC1OC(OC2C(CO)OC(OC3C(O)C(N)CC(N)C3OC3OC(CO)C(O)C(O)C3O)C2O)C(N)C(O)C1O (stereo not shown) [Compound 118, 2′-Deamino-2′-hydroxy-paromomycin acetate salt] was tested, and the “MIC E. coli WT” value (E coli wild type; WT) was 32 µg/mL and the “MIC M. smegmatis SZ380 WT” value (M. smegmatis SZ380) was over 128 µg/mL.

For NCC[C@H](O)C(=O)N[C@@H]1C[C@H](N)[C@@H](O[C@H]2O[C@H](CN)[C@@H](O)[C@H](O)[C@H]2O)[C@H](O)[C@H]1O[C@H]1O[C@H](CO)[C@@H](O)[C@H](N)[C@H]1O [AMK, reference compound], the “MIC E. coli WT” value (E coli wild type; WT) was 2 µg/mL (≈ 3.42 µM), the “MIC E. coli AG106 AAC(2′)-Ia” value ([1]; AG106 AAC(2′)-Ia, Table 5 (Example 3)) was 2 µg/mL (≈ 3.42 µM) and the “MIC E. coli pGB2armA armA” value ([1]; pGB2armA armA, Table 5 (Example 3)) was over 128 μg/ml. The “MIC E. coli pH434 AAC(2′)-Ib” value ([1]; pH434 AAC(2′)-Ib, Table 5 (Example 3)) was 2 μg/ml, the “MIC M. abscessus ATCC 19977 WT” value (M. abscessus; ATCC 19977 WT) was 1 µg/mL (≈ 1.71 µM) and the “MIC M. abscessus clinical isolate” value (M. abscessus; clinical isolate) was 2 µg/mL (≈ 3.42 µM). For the same molecule, the “MIC M. abscessus engineered Δeis2” value (M. abscessus; engineered Δeis2) was 0.125 to 0.25 µg/mL and the “MIC M. smegmatis SZ380 WT” value (M. smegmatis SZ380) was 0.5 µg/mL (≈ 0.854 µM).

In the case of CC1CC(N)C2O[C@H](O[C@@H]3C(N)C[C@@H](N)C(O)[C@H]3O[C@@H]3O[C@H](CO)[C@H](O[C@H]4O[C@@H](CN)[C@@H](O)C(O)C4N)C3O)C(N)[C@@H](O)[C@@H]2O1 (stereo partly drawn) [Compound 150, 4-O-(2′,6′-Diamino-4′,8′-anhydro-2′,6′,7′,9′-tetradeoxy-D-erythro-α-D-gluco-nonapyranosyl)-5-O-(β-paramobiosyl)-2-deoxystreptamine.6AcOH], the “MIC50 MRSA AG38” value (MRSA; strain AG38) is reported as 128 µg/mL (≈ 196 µM), the “MIC50 MRSA AG39” value (MRSA; strain AG39) is reported as 128 µg/mL (≈ 196 µM) and the “MIC50 MRSA AG42” value (MRSA; strain AG42) is reported as 128 µg/mL (≈ 196 µM). The “MIC50 MRSA AG44” value (MRSA; strain AG44) was 128 µg/mL (≈ 196 µM), the “MIC50 E coli BM13 (AG06) wt” value (E coli wild type; BM13 (AG06) wt, Table 2A (Example 2)) was 64 to 128 µg/mL and the “MIC WT” value (E coli wild type; WT, Table 3 (Example 2)) was 64 to 128 µg/mL. For the same molecule, the “MIC50 E coli pH430 WT” value (E coli wild type; pH430 WT, Table 2B (Example 2)) was 64-128 μg/ml, the “MIC50 E coli AG01” value (E coli wild type; strain AG01, Table 1 (Example 2)) was over 128 µg/mL and the “MIC50 E coli AG03” value (E coli wild type; strain AG03, Table 1 (Example 2)) was over 128 µg/mL. The “MIC50 E coli AG55” value (E coli wild type; strain AG55, Table 1 (Example 2)) was over 128 µg/mL, the “MIC50 P aeruginosa AG31” value (P aeruginosa; strain AG31) was over 128 µg/mL and the “MIC50 P aeruginosa AG32” value (P aeruginosa; strain AG32) was over 128 µg/mL. For the same molecule, the “MIC50 P aeruginosa AG33” value (P aeruginosa; strain AG33) was over 128 µg/mL, the “MIC50 P aeruginosa AG86” value (P aeruginosa; strain AG86) was over 128 µg/mL and the IC50 ([2]; Table 3 (Example 2)) was 0.48 µM. For the same molecule, the IC50 ([3]; Table 3 (Example 2)) was 12 µM, the IC50 ([4]; Table 3 (Example 2)) was 4.1 µM and the “MIC SZ380 M. smegmatis” value (M. smegmatis SZ380; strain SZ380 Mycobacterium smegmatis) was 16 to 32 µg/mL.

CC(=O)NC[C@H]1O[C@@H](O[C@@H]2C(O)[C@H](N)CC(N)[C@H]2O[C@H]2OC(CN)[C@@H](O)[C@H](O)C2N)C(O)[C@H]1O (stereo partly shown) [Compound 129] showed an MIC (E coli wild type; [5]) of 64 µg/mL (≈ 129 µM), an MIC (E coli wild type; [6]) of 32 µg/mL (≈ 64.6 µM) and an MIC [1, 7] of over 64 µg/mL.

With NC[C@H]1O[C@H](O[C@H]2[C@H](O[C@@H]3O[C@H](CN)[C@@H](O)[C@H]3O)[C@@H](O)[C@H](N)C[C@@H]2N)[C@H](N)[C@@H](O)[C@@H]1O [Compound 048] the “MIC WT” value (E coli wild type; WT, Table 3 (Example 1)) was 2 to 4 µg/mL, the “MIC APH(3)-VI” value ([1]; APH(3)-VI, Table 3 (Example 1)) was 64 µg/mL (≈ 141 µM) and the “MIC APH(3′)-I” value ([1]; APH(3′)-I, Table 3 (Example 1)) was over 64 µg/mL. For the same molecule, the “MIC APH(3′)-II” value ([1]; APH(3′)-II, Table 3 (Example 1)) was over 64 µg/mL, the “MIC APH(3′)-III” value ([1]; APH(3′)-III, Table 3 (Example 1)) was over 64 µg/mL and the IC50 ([2]; Table 3 (Example 1)) was 0.09 µM. The IC50 ([4]; Table 3 (Example 1)) was 76 µM.
